Experimental data taken from patent publication US9221825B2, “Pyrazolopyrimidinone compound and imidazo triazone compound for treating erectile dysfunction” (Zhejiang Dade Pharmaceutical Group Co., Ltd., priority 2011, dated 2015).

Test system: adult sexual mature male Sprague-Dawley rats
Test: Efficacy test of the drug for anti-Erectile Dysfunction (copulation test)
Type: in vivo, rat
Conditions: for Catching times / Latent period of catch behavior / Riding times: intragastric administration
[1] = animal experiments, in comparison with Sildenafil
[2] = male Sprague-Dawley rats, dosage 2.2 mg/kg bw
[3] = male Sprague-Dawley rats, dosage 4.4 mg/kg bw
[4] = male Sprague-Dawley rats, dosage 8.8 mg/kg bw

Row | SMILES | Effective drug duration [1] | Onset time [1] | Effect on catching times in comparison with the solution control group (male Sprague-Dawley rats, P<0.05) | Catching times [2] | Latent period of catch behavior [2] | Riding times [2] | Catching times [3] | Latent period of catch behavior [3] | Riding times [3] | Catching times [4] | Latent period of catch behavior [4] | Riding times [4]
1 | CCCc1nn(C)c2c(=O)[nH]c(-c3cc(S(=O)(=O)N4CCCN(C)CC4)ccc3OCC)nc12.O=C(O)CC(O)(CC(=O)O)C(=O)O [ED9001, 5-[2-ethoxy-5-(4-methyl-1-homopiperazinylsulfonyl)]-phenyl-1-methyl-3-n-propyl-1,6-dihydro-7H-pyrazolo[4,3-d]pyrimidine-7-one citrate] | longer | shorter | distinct effect on improving catching times | 31 ± 9 times | 12.1 ± 3.6 s | 24 ± 7 times | 26 ± 9 times | 14.4 ± 7.5 s | 21 ± 7 times | 32 ± 9 times | 14.2 ± 4.9 s | 27 ± 10 times
2 | CCCc1nn(C)c2c(=O)[nH]c(-c3cc(S(=O)(=O)N4CCN(C)CC4)ccc3OCC)nc12 [Sildenafil, reference compound] | – | – | – | – | – | – | 27 ± 6 times | 12.5 ± 6.5 s | 24 ± 7 times | – | – | –
